The NIST ThermoML archive (doi:10.1016/j.jct.2007.08.005)

Assays:
[1] = 308.15 K, 101.33 kPa, Liquid; for speed of sound: Sing-around technique in a fixed-path interferometer; for mass density: Vibrating tube method
[2] = xn = mol fraction of the nth substance listed; settings: 308.15 K, 101 kPa, Liquid; for excess molar volume: Direct dilatometry; for speed of sound: Sing-around technique in a fixed-path interferometer

OCCO [1,2-ethanediol]
[1]
Settings	speed of sound [m/s]	viscosity [mPa·s]
–	1633.4	11.35

OCCCCCO [1,5-pentanediol]
[1]
Settings	mass density [kg/m3]	speed of sound [m/s]	viscosity [mPa·s]
–	974.3	1566.1	64

OCCCCCO [1,5-pentanediol] + O=C1CCCN1
[2]
Settings	excess molar volume [m3/mol]	speed of sound [m/s]	viscosity [mPa·s]
x1 = 0.0022	1e-09	–	–
x1 = 0.009	3e-09	–	–
x1 = 0.0129	5e-09	–	–
x1 = 0.0168	6e-09	–	–
x1 = 0.0269	1e-08	–	–
x1 = 0.0298	–	1597.5	9.401
x1 = 0.0326	1.5e-08	–	–
x1 = 0.0454	1.7e-08	–	–
x1 = 0.0514	–	1595.7	9.774
x1 = 0.0619	2.7e-08	–	–
x1 = 0.0915	3.4e-08	–	–
x1 = 0.1017	–	1591.8	10.74
x1 = 0.1149	4e-08	–	–
x1 = 0.1375	4.4e-08	–	–
x1 = 0.1536	–	1588.7	11.8
x1 = 0.1895	5.2e-08	–	–
x1 = 0.2008	–	1586.9	12.89
x1 = 0.2539	5.9e-08	–	–
x1 = 0.293	6.4e-08	–	–
x1 = 0.2942	–	1583.5	15.32
x1 = 0.3268	6.7e-08	–	–
x1 = 0.3769	7e-08	–	–
x1 = 0.3886	–	1580.9	18.07
x1 = 0.4209	7e-08	–	–
x1 = 0.4564	7.1e-08	–	–
x1 = 0.479	–	1578.8	21.15
x1 = 0.5091	7e-08	–	–
x1 = 0.5407	6.9e-08	–	–
x1 = 0.5779	6.6e-08	–	–
x1 = 0.582	–	1577.1	24.71
x1 = 0.601	6.1e-08	–	–
x1 = 0.6363	5.6e-08	–	–
x1 = 0.6673	5.3e-08	–	–
x1 = 0.6827	–	1575.3	29.13
x1 = 0.7035	4.7e-08	–	–
x1 = 0.7347	4.2e-08	–	–
x1 = 0.7812	–	1573	36.21
x1 = 0.7879	3.3e-08	–	–
x1 = 0.822	2.8e-08	–	–
x1 = 0.8319	–	1571.6	41.2
x1 = 0.8461	2.6e-08	–	–
x1 = 0.8694	2.3e-08	–	–
x1 = 0.8947	1.8e-08	–	–
x1 = 0.9095	–	1569.4	50.56
x1 = 0.9143	1.3e-08	–	–
x1 = 0.9392	–	1568.6	54.65
x1 = 0.9428	1.1e-08	–	–
x1 = 0.9583	7e-09	–	–
x1 = 0.9749	–	1567.3	59.95
x1 = 0.9783	3e-09	–	–

O=C1CCCN1 [2-pyrrolidinone]
[1]
Settings	mass density [kg/m3]	speed of sound [m/s]	viscosity [mPa·s]
–	1097.14	1600	8.922

OCCCO [propan-1,3-diol]
[1]
Settings	mass density [kg/m3]	speed of sound [m/s]	viscosity [mPa·s]
–	1042.7	1604.5	26.44
